Measurements published in publication PMC6576746, “Rational discovery of dual-indication multi-target PDE/Kinase inhibitor for precision anti-cancer therapy using structural systems pharmacology” (PLoS Computational Biology, 2019).
pEC50, pIC50: −log10 of the molar value.

Key:
Assay in all cases: cells
Design in all cases: species or system panel of human cancer cell lines; Eurofins OncoPanel proliferation; nuclei count by high-content fluorescence imaging, 10-point dose response
[1] = system: C-33A; conditions: Homo sapiens, C-33-A, 72 h, cell count, 3 days
Outline: (§1)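 Cells in RPMI 1640/10% FBS or special medium received compound the day after seeding, with a time-zero plate; 3-day incubation at 37°C, 5% CO2. Nuclei imaged by fluorescence microscopy; 10 half-log doses from 100 μM, 0.1% DMSO. EC50, IC50, GI50 and activity area (0–10) from curve fits.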

[2] = system: H4; conditions: 72 h, cell count, 3 days
Outline: as §1

[3] = system: J82; conditions: Homo sapiens, J82, 72 h, cell count, 3 days
Outline: as §1

[4] = system: HT-1197; conditions: Homo sapiens, HT1197, 72 h, cell count, 3 days
Outline: as §1

[5] = system: HT-29; conditions: Homo sapiens, HT-29, 72 h, cell count, 3 days
Outline: as §1

[6] = system: Hs 934.T; conditions: 72 h, cell count, 3 days
Outline: as §1

[7] = system: DB; conditions: Homo sapiens, DB, 72 h, cell count, 3 days
Outline: as §1

[8] = system: Hs 936.T(C1); conditions: 72 h, cell count, 3 days
Outline: as §1

[9] = system: 769-P; conditions: Homo sapiens, 769-P, 72 h, cell count, 3 days
Outline: as §1

[10] = system: WiDr; conditions: Homo sapiens, WiDr, 72 h, cell count, 3 days
Outline: as §1

[11] = system: BCP-1; conditions: BCP-1, 72 h, cell count, 3 days
Outline: as §1

[12] = system: SW1353; conditions: Homo sapiens, SW1353, 72 h, cell count, 3 days
Outline: as §1

[13] = system: SW837; conditions: Homo sapiens, SW837, 72 h, cell count, 3 days
Outline: as §1

[14] = system: Caki-2; conditions: Homo sapiens, CAKI-2, 72 h, cell count, 3 days
Outline: as §1

[15] = 50% of maximum possible response

Q: C[C@@H]1CC(=O)NN=C1c1ccc(NN=C(C#N)C#N)cc1 [levosimendan] was tested. Which pIC50 [1, 15] did it give?
A: The pIC50 was 4.84.

Q: What about the GI50 ([1]; corrected for time zero) of the same compound?
A: Its GI50 is 10.7 µM.

Q: What about the pEC50 ([1]; curve inflection point) of the same compound?
A: Its pEC50 is 4.84.

Q: What about the pIC50 [2, 15] of the same compound?
A: The pIC50 was < 4.00.

Q: And the GI50 ([2]; corrected for time zero)?
A: Its GI50 is > 100 µM.

Q: What about the pEC50 ([2]; curve inflection point) of the same compound?
A: The pEC50 was < 4.00.

Q: And the pIC50 [3, 15]?
A: The pIC50 was < 4.00.

Q: What about the GI50 ([3]; corrected for time zero) of the same compound?
A: The GI50 was > 100 µM.

Q: And the pEC50 ([3]; curve inflection point)?
A: The pEC50 was < 4.00.

Q: What about the pIC50 [4, 15] of the same compound?
A: The pIC50 was < 4.00.

Q: And the GI50 ([4]; corrected for time zero)?
A: The GI50 was 96 µM.

Q: And the pEC50 ([4]; curve inflection point)?
A: The pEC50 was < 4.00.

Q: What about the pIC50 [5, 15] of the same compound?
A: The pIC50 was < 4.00.

Q: And the GI50 ([5]; corrected for time zero)?
A: The GI50 was 82.7 µM.

Q: And the pEC50 ([5]; curve inflection point)?
A: Its pEC50 is < 4.00.

Q: And the pIC50 [6, 15]?
A: Its pIC50 is < 4.00.

Q: And the GI50 ([6]; corrected for time zero)?
A: The GI50 was > 100 µM.

Q: What about the pEC50 ([6]; curve inflection point) of the same compound?
A: The pEC50 was < 4.00.

Q: And the pIC50 [7, 15]?
A: The pIC50 was 4.75.

Q: And the GI50 ([7]; corrected for time zero)?
A: Its GI50 is 14.5 µM.

Q: What about the pEC50 ([7]; curve inflection point) of the same compound?
A: The pEC50 was 4.75.

Q: What about the pIC50 [8, 15] of the same compound?
A: Its pIC50 is < 4.00.

Q: What about the GI50 ([8]; corrected for time zero) of the same compound?
A: Its GI50 is > 100 µM.

Q: What about the pEC50 ([8]; curve inflection point) of the same compound?
A: The pEC50 was < 4.00.

Q: And the pIC50 [9, 15]?
A: The pIC50 was 4.40.

Q: What about the GI50 ([9]; corrected for time zero) of the same compound?
A: Its GI50 is 28.6 µM.

Q: And the pEC50 ([9]; curve inflection point)?
A: The pEC50 was 4.03.

Q: What about the pIC50 [10, 15] of the same compound?
A: The pIC50 was 4.11.

Q: What about the GI50 ([10]; corrected for time zero) of the same compound?
A: The GI50 was 70.6 µM.

Q: What about the pEC50 ([10]; curve inflection point) of the same compound?
A: The pEC50 was 4.11.

Q: What about the pIC50 [11, 15] of the same compound?
A: The pIC50 was 4.90.

Q: What about the GI50 ([11]; corrected for time zero) of the same compound?
A: The GI50 was 8.13 µM.

Q: And the pEC50 ([11]; curve inflection point)?
A: The pEC50 was 4.90.

Q: And the pIC50 [12, 15]?
A: The pIC50 was 4.14.

Q: And the GI50 ([12]; corrected for time zero)?
A: Its GI50 is 60.9 µM.

Q: What about the pEC50 ([12]; curve inflection point) of the same compound?
A: The pEC50 was 4.14.

Q: What about the pIC50 [13, 15] of the same compound?
A: The pIC50 was 4.43.

Q: What about the GI50 ([13]; corrected for time zero) of the same compound?
A: Its GI50 is 31.8 µM.

Q: And the pEC50 ([13]; curve inflection point)?
A: The pEC50 was 4.48.

Q: What about the pIC50 [14, 15] of the same compound?
A: The pIC50 was < 4.00.

Q: What about the GI50 ([14]; corrected for time zero) of the same compound?
A: The GI50 was > 100 µM.

Q: And the pEC50 ([14]; curve inflection point)?
A: The pEC50 was < 4.00.
